Where “and” joins values, the source holds several entries; their conditions need not be identical. Identical values can stand only once. Toxic doses and inconclusive results are not listed. Rule as the data show it: active = T/C of 150% or more; inactive = T/C below 125%.
Test system: L1210 leukemia ip in BDF1 mice, survival T/C
Assay: NCI In Vivo Anticancer Drug Screen. Data for tumor model L1210 Leukemia (intraperitoneal) in B6D2F1 (BDF1) mice
Details: endpoint: mean survival time, higher = longer survival
How it was run: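 Read-out is survival time, reported as the treated-group measurement over the vehicle-control measurement.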

[1] = dose: 25.0 mg/kg/injection, schedule: Q04DX003 (ip), vehicle: Klucel (hydroxypropylcellulose) (HPC)
[2] = dose: 50.0 mg/kg/injection, schedule: Q04DX003 (ip), vehicle: Klucel (hydroxypropylcellulose) (HPC)
[3] = dose: 100.0 mg/kg/injection, schedule: Q04DX003 (ip), vehicle: Klucel (hydroxypropylcellulose) (HPC)
[4] = dose: 100.0 mg/kg/injection, schedule: Q04DX002 (ip), vehicle: Klucel (hydroxypropylcellulose) (HPC)
[5] = dose: 100.0 mg/kg/injection, schedule: Q01DX009 (ip), vehicle: Klucel (hydroxypropylcellulose) (HPC)
[6] = dose: 200.0 mg/kg/injection, schedule: Q01DX009 (ip), vehicle: Klucel (hydroxypropylcellulose) (HPC)
[7] = dose: 100.0 mg/kg/injection, schedule: Q01DX001 (ip), vehicle: carboxymethylcellulose (CMC)
[8] = dose: 200.0 mg/kg/injection, schedule: Q01DX001 (ip), vehicle: carboxymethylcellulose (CMC)
[9] = dose: 400.0 mg/kg/injection, schedule: Q01DX001 (ip), vehicle: carboxymethylcellulose (CMC)
[10] = dose: 100.0 mg/kg/injection, schedule: Q01DX001 (ip), vehicle: Klucel (hydroxypropylcellulose) (HPC)
[11] = dose: 200.0 mg/kg/injection, schedule: Q04DX003 (ip), vehicle: Klucel (hydroxypropylcellulose) (HPC)
[12] = dose: 400.0 mg/kg/injection, schedule: Q04DX003 (ip), vehicle: Klucel (hydroxypropylcellulose) (HPC)
[13] = dose: 400.0 mg/kg/injection, schedule: Q01DX009 (ip), vehicle: Klucel (hydroxypropylcellulose) (HPC)
[14] = dose: 100.0 mg/kg/injection, schedule: Q04DX002 (ip), vehicle: saline
[15] = dose: 200.0 mg/kg/injection, schedule: Q04DX002 (ip), vehicle: saline
[16] = dose: 200.0 mg/kg/injection, schedule: Q04DX002 (ip), vehicle: Klucel (hydroxypropylcellulose) (HPC)
[17] = dose: 400.0 mg/kg/injection, schedule: Q04DX002 (ip), vehicle: Klucel (hydroxypropylcellulose) (HPC)

Measured: T/C

Nc1nc(N)c(-c2ccc(Cl)c(Cl)c2)c(CBr)n1
inactive: dose: 1.56 mg/kg/injection, schedule: Q01DX009 (ip), vehicle: saline with Tween-80 101 % of control | dose: 3.13 mg/kg/injection, schedule: Q01DX009 (ip), vehicle: saline with Tween-80 101 % of control and 92 % of control | dose: 6.25 mg/kg/injection, schedule: Q01DX009 (ip), vehicle: saline with Tween-80 102 % of control | dose: 12.5 mg/kg/injection, schedule: Q01DX009 (ip), vehicle: saline with Tween-80 99 % of control and 101 % of control | dose: 12.5 mg/kg/injection, schedule: Q04DX003 (ip), vehicle: Klucel (hydroxypropylcellulose) (HPC) 90 % of control | [1] 113 % of control | [2] 87 % of control | [3] 87 % of control

CN(C)C(=S)SSSC(=S)N(C)C
inactive: dose: 25.0 mg/kg/injection, schedule: Q04DX002 (ip), vehicle: Klucel (hydroxypropylcellulose) (HPC) 101 % of control | dose: 50.0 mg/kg/injection, schedule: Q04DX002 (ip), vehicle: Klucel (hydroxypropylcellulose) (HPC) 94 % of control | [4] 93 % of control and 105 % of control

CC1CC2C3CC(F)C4=CC(=O)C=CC4(C)C3(F)C(O)CC2(C)C1(O)C(=O)COC(=O)C(C)(C)C (stereo not drawn)
inactive: dose: 100.0 mg/kg/injection, schedule: Q01DX001 (ip), vehicle: steriod suspending solution 106 % of control | dose: 200.0 mg/kg/injection, schedule: Q01DX001 (ip), vehicle: steriod suspending solution 95 % of control | dose: 400.0 mg/kg/injection, schedule: Q01DX001 (ip), vehicle: steriod suspending solution 95 % of control

c1ccc(-c2ccc(C3=NC(c4ccccc4)CC3)[nH]2)cc1 (stereo not drawn)
inactive: dose: 50.0 mg/kg/injection, schedule: Q01DX009 (ip), vehicle: Klucel (hydroxypropylcellulose) (HPC) 90 % of control | [5] 90 % of control | [6] 86 % of control

CCCCN(CCCC)S(=O)(=O)CC
inactive: dose: 100.0 mg/kg/injection, schedule: Q04DX002 (ip), vehicle: saline with Tween-80 100 % of control | dose: 200.0 mg/kg/injection, schedule: Q04DX002 (ip), vehicle: saline with Tween-80 98 % of control | dose: 400.0 mg/kg/injection, schedule: Q04DX002 (ip), vehicle: saline with Tween-80 95 % of control

Oc1ccc2ccccc2c1/C=N/N=c1\[nH][nH]/c(=N\N=C\c2c(O)ccc3ccccc23)c2ccccc12
inactive: dose: 50.0 mg/kg/injection, schedule: Q01DX001 (ip), vehicle: carboxymethylcellulose (CMC) 95 % of control | [7] 93 % of control | [8] 98 % of control | [9] 87 % of control

CCOC(=O)CCc1c(C(=O)O)[nH]c(C(=O)OCC)c1C
inactive: [1] 102 % of control | [2] 107 % of control | [10] 98 % of control | [3] 102 % of control | dose: 200.0 mg/kg/injection, schedule: Q01DX001 (ip), vehicle: Klucel (hydroxypropylcellulose) (HPC) 97 % of control | [11] 93 % of control | dose: 400.0 mg/kg/injection, schedule: Q01DX001 (ip), vehicle: Klucel (hydroxypropylcellulose) (HPC) 97 % of control | [12] 101 % of control

O=C(Cc1cccc2ccccc12)N/N=C/c1ccccc1Cl
inactive: [5] 89 % of control and 90 % of control | [6] 92 % of control | [13] 86 % of control and 90 % of control

CN1CCN(c2nc3ccccc3n3nnnc23)CC1
inactive: dose: 37.5 mg/kg/injection, schedule: Q04DX003 (ip), vehicle: saline 104 % of control | dose: 75.0 mg/kg/injection, schedule: Q04DX003 (ip), vehicle: saline 107 % of control

CC(N)CCCO (stereo not drawn)
inactive: dose: 5.0 mg/kg/injection, schedule: Q01DX001 (ip), vehicle: saline 103 % of control | dose: 10.0 mg/kg/injection, schedule: Q01DX001 (ip), vehicle: saline 97 % of control | dose: 20.0 mg/kg/injection, schedule: Q01DX001 (ip), vehicle: saline 103 % of control | dose: 40.0 mg/kg/injection, schedule: Q01DX001 (ip), vehicle: saline 101 % of control | dose: 80.0 mg/kg/injection, schedule: Q01DX001 (ip), vehicle: saline 103 % of control

COc1ccccc1-c1cn(O)c2nc(=N)nc(N)c-2n1
inactive: [14] 97 % of control | [15] 94 % of control | dose: 400.0 mg/kg/injection, schedule: Q04DX002 (ip), vehicle: saline 111 % of control

O=C(Nc1ccccc1F)N(CCO)C1CCCCC1
inactive: [5] 101 % of control | [6] 106 % of control | [13] 101 % of control

COCCNC(=O)Nc1cccc2c1CCCC2
inactive: dose: 100.0 mg/kg/injection, schedule: Q01DX009 (ip), vehicle: saline with Tween-80 97 % of control | dose: 200.0 mg/kg/injection, schedule: Q01DX009 (ip), vehicle: saline with Tween-80 99 % of control | dose: 400.0 mg/kg/injection, schedule: Q01DX009 (ip), vehicle: saline with Tween-80 103 % of control

OCC1(Br)CCC(Br)(CO)CC1 (stereo not drawn)
inactive: [4] 103 % of control | dose: 100.0 mg/kg/injection, schedule: Q04DX003 (ip), vehicle: saline with Tween-80 104 % of control | [16] 111 % of control | dose: 200.0 mg/kg/injection, schedule: Q04DX003 (ip), vehicle: saline with Tween-80 98 % of control | [17] 107 % of control | dose: 400.0 mg/kg/injection, schedule: Q04DX003 (ip), vehicle: saline with Tween-80 96 % of control

O=[N+]([O-])c1ccccc1Sc1ccc2c3c(cccc13)CN(CCCO)C2
inactive: [4] 90 % of control | [16] 108 % of control | [17] 104 % of control

O=c1cc(Sc2ccccc2)[nH]c(=O)[nH]1
inactive: [3] 96 % of control | [11] 105 % of control | [12] 102 % of control

Cc1cccc(C)c1NC(=O)C[N+](C)(C)N
inactive: [14] 94 % of control | [15] 94 % of control

O=C1CCCNc2c(Br)cc(Br)cc21
inactive: [7] 91 % of control | [8] 94 % of control | [9] 100 % of control

C=C1CCC(c2ccccc2)N(C)C1=O (stereo not drawn)
inactive: dose: 25.0 mg/kg/injection, schedule: Q01DX001 (ip), vehicle: saline with Tween-80 104 % of control | dose: 50.0 mg/kg/injection, schedule: Q01DX001 (ip), vehicle: saline with Tween-80 101 % of control | dose: 100.0 mg/kg/injection, schedule: Q01DX001 (ip), vehicle: saline with Tween-80 98 % of control | dose: 200.0 mg/kg/injection, schedule: Q01DX001 (ip), vehicle: saline with Tween-80 98 % of control

O=C1CC2CC1C1CC(Br)C(Br)C21 (stereo not drawn)
inactive: dose: 100.0 mg/kg/injection, schedule: Q04DX003 (ip), vehicle: acetone 97 % of control | dose: 200.0 mg/kg/injection, schedule: Q04DX003 (ip), vehicle: acetone 97 % of control | dose: 400.0 mg/kg/injection, schedule: Q04DX003 (ip), vehicle: acetone 92 % of control

Nc1nc(-c2cccc(NC(=O)c3ccc(S(=O)(=O)F)cc3)c2)nc2[nH]ncc12
inactive: dose: 25.0 mg/kg/injection, schedule: Q01DX001 (ip), vehicle: Klucel (hydroxypropylcellulose) (HPC) 86 % of control | dose: 50.0 mg/kg/injection, schedule: Q01DX001 (ip), vehicle: Klucel (hydroxypropylcellulose) (HPC) 94 % of control | [10] 86 % of control
